Laboratory results from ChEMBL document CHEMBL6182898, “Design, synthesis and bioevaluation of novel hydrazide derivatives as enhancers of immunotherapy and DNA-damage response in antitumor therapy” (Eur J Med Chem, 2025).
Calls of active or inactive are those of the source. The calls are words filed in the database; no cut-off is given here.

Columns and labels:
B16-F10 [1] = assay: Antitumor activity against mouse B16-F10 cells implanted in male C57BL/6J mouse at 50 mg/kg, IG treated for 14 days consecutively relative to control; format: functional; conditions: B16-F10, po, 336 h, time 14 day, read-out: TGI
4T1 [2] = assay: Induction of DNA damage in mouse 4T1 cells implanted in mouse assessed as increase in gamma-H2AX level at 50 mg/kg/day by immunofluorescence based analysis; format: functional, organism-based
4T1 [3] = assay: Synergistic induction of DNA damage in mouse 4T1 cells implanted in mouse assessed as increase in gamma-H2AX level at 25 mg/kg/day in presence of olaparib by IHC analysis; format: functional, organism-based
[4] = target: Programmed cell death 1 ligand 1 (Mus musculus) (UniProt Q9EP73); assay: Induction of PD-L1 degradation in mouse B16-F10 cells at 5 uM incubated for 24 hrs in presence of MG-132 by Western blot analysis; format: cell-based
Chain of Programmed cell death 1 ligand 1 (Mus musculus) (Q9EP73 whole entry): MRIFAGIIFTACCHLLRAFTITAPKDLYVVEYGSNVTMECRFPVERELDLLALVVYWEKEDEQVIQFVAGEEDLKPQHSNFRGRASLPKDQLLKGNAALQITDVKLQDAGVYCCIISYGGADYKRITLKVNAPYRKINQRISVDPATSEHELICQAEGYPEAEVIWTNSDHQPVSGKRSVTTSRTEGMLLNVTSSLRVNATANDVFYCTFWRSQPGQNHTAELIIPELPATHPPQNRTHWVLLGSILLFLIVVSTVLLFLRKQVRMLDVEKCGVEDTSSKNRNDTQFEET

[5] = Apparent volume of distribution in male Sprague-Dawley rat at 2 mg/kg, iv measured for 0.083 to 12 hrs by LC-MS/MS analysis; format: ADME, organism-based; conditions: in vivo, time 0.083-12 hrs, read-out: Vz
[6] = AUC (0 to t) in male Sprague-Dawley rat at 20 mg/kg, po measured for 0.083 to 12 hrs by LC-MS/MS analysis; format: ADME, organism-based; conditions: in vivo, time 0.083-12 hrs
[7] = target: Programmed cell death 1 ligand 1 (Mus musculus) (UniProt Q9EP73); assay: Induction of PD-L1 degradation in mouse B16-F10 cells at 5 uM incubated for 24 hrs in presence of Bafilomycin A1 by Western blot analysis; format: cell-based
4T1 [8] = assay: Induction of DNA damage in mouse 4T1 cells assessed as decrease in PARP1 level at 5 uM by immunofluorescence based analysis; format: functional, cell-based
Mus musculus = assay: Effect on Ac-alpha-tubulin in mouse B16-F10 cells implanted in male C57BL/6J mouse at 50 mg/kg, IG treated for 14 days consecutively by Western blot analysis; format: functional, organism-based; conditions: time 14.0 day
4T1 [9] = assay: Synergistic induction of DNA damage in mouse 4T1 cells implanted in mouse assessed as increase in gamma-H2AX level at 25 mg/kg/day in presence of olaparib by Western blot analysis; format: functional, organism-based
4T1 [10] = assay: Induction of DNA damage in mouse 4T1 cells implanted in mouse assessed as increase in gamma-H2AX level at 50 mg/kg/day by Western blot analysis; format: functional, organism-based
[11] = Toxicity in male C57BL/6J mouse implanted with mouse B16-F10 cells assessed as body weight change at 25 mg/kg, IG treated for 14 days consecutively in presence of NP-19; format: organism-based; conditions: in vivo, po, 336 h, time 14 day
[12] = MRT (0 to t) in male Sprague-Dawley rat at 2 mg/kg, iv measured for 0.083 to 12 hrs by LC-MS/MS analysis; format: ADME, organism-based; conditions: in vivo, time 0.083-12 hrs
B16-F10 [13] = assay: Induction of antitumor immunity in mouse B16-F10 cells implanted in male C57BL/6J mouse assessed as CD3+CD4+ T cell infiltration at 50 mg/kg, IG treated for 14 days consecutively by flow cytometry (reference value: 7.4 %); format: functional; conditions: time 14 day
[14] = Clast in male Sprague-Dawley rat at 2 mg/kg, iv measured for 0.083 to 12 hrs by LC-MS/MS analysis; format: ADME, organism-based; conditions: in vivo, time 0.083-12 hrs
[15] = AUC (0 to t) in male Sprague-Dawley rat at 2 mg/kg, iv measured for 0.083 to 12 hrs by LC-MS/MS analysis; format: ADME, organism-based; conditions: in vivo, time 0.083-12 hrs
B16-F10 [16] = assay: Induction of antitumor immunity in mouse B16-F10 cells implanted in male C57BL/6J mouse assessed as increase in T cell infiltration at 50 mg/kg, IG treated for 14 days consecutively by immunofluorescence based analysis; format: functional, organism-based; conditions: time 14.0 day
[17] = target: T1, Histone deacetylase 3 (Mus musculus) (UniProt O88895); assay: In vivo inhibition of HDAC3 in mouse B16-F10 cells implanted in male C57BL/6J mouse assessed as increase in Ac-H3 level at 50 mg/kg, IG treated for 14 days consecutively by immunofluorescence based analysis; format: functional, organism-based; conditions: time 14.0 day
T1 sequence (whole entry): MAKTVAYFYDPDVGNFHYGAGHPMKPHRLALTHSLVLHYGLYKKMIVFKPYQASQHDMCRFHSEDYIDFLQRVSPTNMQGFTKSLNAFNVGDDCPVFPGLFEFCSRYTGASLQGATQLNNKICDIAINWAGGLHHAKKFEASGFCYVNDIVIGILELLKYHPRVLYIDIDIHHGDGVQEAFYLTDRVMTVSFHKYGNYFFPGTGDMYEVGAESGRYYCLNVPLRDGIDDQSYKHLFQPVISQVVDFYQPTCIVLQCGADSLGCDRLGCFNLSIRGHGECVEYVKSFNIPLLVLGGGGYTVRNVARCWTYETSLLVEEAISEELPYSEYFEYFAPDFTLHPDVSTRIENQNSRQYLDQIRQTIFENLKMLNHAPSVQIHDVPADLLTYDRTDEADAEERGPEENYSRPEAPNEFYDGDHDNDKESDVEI

[18] = target: T1, Histone deacetylase 3 (Mus musculus); assay: In vivo inhibition of HDAC3 in mouse B16-F10 cells implanted in male C57BL/6J mouse assessed as increase in Ac-H3 level at 25 mg/kg, IG treated for 14 days consecutively in presence of NP-19 by immunofluorescence based analysis; format: functional, organism-based; conditions: time 14.0 day
B16-F10 [19] = assay: Antitumor activity against mouse B16-F10 cells implanted in male C57BL/6J mouse at 25 mg/kg, IG treated for 14 days consecutively in presence of NP-19 relative to control; format: functional; conditions: B16-F10, po, 336 h, time 14 day, read-out: TGI
B16-F10 [20] = assay: Induction of antitumor immunity in mouse B16-F10 cells implanted in male C57BL/6J mouse assessed as CD3+CD8+ T cell infiltration at 50 mg/kg, IG treated for 14 days consecutively by flow cytometry (reference value: 10 %); format: functional; conditions: time 14 day
[21] = MRT (0 to infinity) in male Sprague-Dawley rat at 20 mg/kg, po measured for 0.083 to 12 hrs by LC-MS/MS analysis; format: ADME, organism-based; conditions: in vivo, time 0.083-12 hrs
[22] = AUMC (0 to t) in male Sprague-Dawley rat at 2 mg/kg, iv measured for 0.083 to 12 hrs by LC-MS/MS analysis; format: ADME, organism-based; conditions: in vivo, time 0.083-12 hrs
[23] = Tmax in male Sprague-Dawley rat at 2 mg/kg, iv measured for 0.083 to 12 hrs by LC-MS/MS analysis; format: ADME, organism-based; conditions: in vivo, time 0.083-12 hrs
[24] = Toxicity in male C57BL/6J mouse implanted with mouse B16-F10 cells assessed as histopathological damage in liver at 50 mg/kg, IG treated for 14 days consecutively by H and E staining based analysis; format: organism-based; conditions: in vivo, po, 336 h, time 14 day
[25] = MRT (0 to t) in male Sprague-Dawley rat at 20 mg/kg, po measured for 0.083 to 12 hrs by LC-MS/MS analysis; format: ADME, organism-based; conditions: in vivo, time 0.083-12 hrs
[26] = target: Programmed cell death 1 ligand 1 (Mus musculus) (UniProt Q9EP73); assay: Induction of PD-L1 degradation in mouse B16-F10 cells at 2 uM incubated for 24 hrs in presence of CA-074 by Western blot analysis; format: cell-based
[27] = Toxicity in male C57BL/6J mouse implanted with mouse B16-F10 cells assessed as histopathological damage in liver at 25 mg/kg, IG treated for 14 days consecutively in presence of NP-19 by H and E staining based analysis; format: organism-based; conditions: in vivo, po, 336 h, time 14 day

Vd [5]: 10.6 L/kg
AUC(0-t) [6]: 30.8 ng·h/mL
MRT last [12]: 0.34 h
Clast [14]: 0.24 ng/mL
AUC(0-t) [15]: 657 ng·h/mL
inhibition [17]: Active
inhibition [18]: Active
MRT inf [21]: 3.13 h
AUMCt [22]: 223.08 hr.hr.ug/L
Tmax [23]: 4.8 min
MRT last [25]: 2.57 h
SMILES: CCCNNC(=O)CCCCCCNC(=O)c1cnc(-c2ccc(NC(=O)OC(C)(C)C)cc2)s1
inhibition in vivo at 50 mg/kg (B16-F10 [1]): 59%
Activity (4T1 [2]): Active
Activity (4T1 [3]): Active
Activity [4]: Active
Activity [7]: inactive
Activity (4T1 [8]): Active
Activity (Mus musculus): No effect
Activity (4T1 [9]): Active
Activity (4T1 [10]): Active
Activity [11]: Non-toxic
Activity (B16-F10 [13]): 12%
Activity (B16-F10 [16]): Active
inhibition in vivo at 25 mg/kg (B16-F10 [19]): 65%
Activity (B16-F10 [20]): 22%
Activity [24]: Non-toxic
Activity [26]: inactive
Activity [27]: Non-toxic
